Assays:
[1] = system: C57BL/6 male mice; assay: Seltzer model of neuropathic pain, Hargreaves' test; assay type: in vivo, mouse
From the text: Neuropathic pain. The mouse Seltzer model of neuropathic pain (Malmberg et al. (1998) Pain 76:215-222) was used with C57BL/6 male mice, in which a partial nerve injury was produced by tying a tight ligature with a 7-0 silk suture around approximately ⅓ to ½ the diameter of the sciatic nerve of one single thigh per mouse. Post-surgery, the mice were allowed to recover for at least two days and then they were studied for several weeks post-surgery for thermal hyperalgesia in the Hargreaves' test. Controls were sham-operated mice in which the sciatic nerve was exposed and elevated but not tied. Following surgery, the mice were tested at day […] and at day 7 post-surgery to confirm that the thermal hyperalgesia had developed.
Following the Seltzer surgery, mice were tested at days 5 and 7 post-surgery to confirm that the thermal hyperalgesia had developed.

[2] = system: C57BL/6 mice; assay: Post-operative incision pain model, mechanical allodynia in von Frey test; assay type: in vivo, mouse; details: Table 17
Protocol: Thermal hyperalgesia was studied in the Hargreaves' test and mechanical allodynia was tested in the von Frey test. In this latter test, mice were tested after being acclimated for 2-3 hours for 4 days in an apparatus with a wire mesh floor. The test was performed by applying, in ascending order, a series of von Frey hairs through the wire mesh onto the plantar surface of the hind paw with the incision. A response was considered positive if the paw was raised from the platform in response to application of the filament. Starting from the thinnest hair, each von Frey filament was applied up to five times until a response was observed.

[3] = target: T1, human NT-3 binding to human TrkA-hFc (Homo sapiens, UniProt P20783); assay: BIACORE, NT-3 binding to TrkA-hFc surface in presence of antibody; details: 20 nM NT-3 + 500 nM sample; normalized to IgG1 control
T1 sequence (P20783 139-257): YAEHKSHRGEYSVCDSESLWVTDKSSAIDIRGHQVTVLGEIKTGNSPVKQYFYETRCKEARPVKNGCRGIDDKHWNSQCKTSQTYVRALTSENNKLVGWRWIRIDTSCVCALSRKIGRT
Protocol: Human TrkA-hFc (9300 RU), human TrkB-hFc (6000 RU), human TrkC-hFc (9100 RU) and human p75-hFc (7500 RU) were covalently coupled to BIACORE® CM5 chip surfaces by amine-coupling procedure. […] The binding mixture was first incubated at room temperature to reach equilibrium (about 1 hr) and then was injected over the above TrkA-hFc, TrkB-hFc, TrkC-hFc and p75-hFc surfaces. The level of human NT-3 binding in each sample was measured. The binding RU from each sample mixture was normalized according to the RU value from the negative control sample (i.e., 20 nM human NT-3 with 500 nM AVASTIN®) and presented as % binding to Trk surfaces (Table 9).

## IgG1 Control: negative binding control, IgG1 control (AVASTIN®; Genentech, CA)
[1]; Table 24, injected Day 14, Day 10
  mean percent change from Hargreaves baseline: −52.8 ± 7.2%
[1]; Table 24, injected Day 14, Day 14
  mean percent change from Hargreaves baseline: −62.1 ± 5.7%
[1]; Table 24, injected Day 14, Day 15
  mean percent change from Hargreaves baseline: −63.0 ± 5.8%
[1]; Table 24, injected Day 14, Day 17
  mean percent change from Hargreaves baseline: −58.6 ± 5.7%
[1]; Table 24, injected Day 14, Day 21
  mean percent change from Hargreaves baseline: −57.1 ± 4.4%
[1]; Table 24, injected Day 14, Day 24
  mean percent change from Hargreaves baseline: −49.5 ± 6.6%
[1]; Table 24, injected Day 14, Day 28
  mean percent change from Hargreaves baseline: −53.6 ± 5.4%
[1]; Table 24, injected Day 14, Day 32
  mean percent change from Hargreaves baseline: −40.9 ± 13.1%
[1]; Table 24, injected Day 14, Day 35
  mean percent change from Hargreaves baseline: −42.9 ± 10.3%
[1]; Table 24, injected Day 14, Day 39
  mean percent change from Hargreaves baseline: −39.0 ± 11.4%
[1]; Table 24, injected Day 14, Day 42
  mean percent change from Hargreaves baseline: −38.1 ± 12.5%
[1]; Table 24, injected Day 21, Day 5 after surgery
  mean percent change from Hargreaves baseline: −55.5 ± 5.0%
[1]; Table 24, injected Day 21, Day 7
  mean percent change from Hargreaves baseline: −47.2 ± 4.8%
[1]; Table 24, injected Day 21, Day 8
  mean percent change from Hargreaves baseline: −47.9 ± 4.7%
[1]; Table 24, injected Day 21, Day 10
  mean percent change from Hargreaves baseline: −55.0 ± 6.7%
[1]; Table 24, injected Day 21, Day 14
  mean percent change from Hargreaves baseline: −63.8 ± 4.6%
[1]; Table 24, injected Day 21, Day 15
  mean percent change from Hargreaves baseline: −54.5 ± 5.0%
[1]; Table 24, injected Day 21, Day 17
  mean percent change from Hargreaves baseline: −52.4 ± 5.3%
[1]; Table 24, injected Day 21, Day 21
  mean percent change from Hargreaves baseline: −55.8 ± 3.6%
[1]; Table 24, injected Day 21, Day 22
  mean percent change from Hargreaves baseline: −50.6 ± 5.3%
[1]; Table 24, injected Day 21, Day 24
  mean percent change from Hargreaves baseline: −44.7 ± 5.7%
[1]; Table 24, injected Day 21, Day 28
  mean percent change from Hargreaves baseline: −46.0 ± 7.6%
[1]; Table 24, injected Day 21, Day 32
  mean percent change from Hargreaves baseline: −32.8 ± 4.8%
[1]; Table 24, injected Day 21, Day 35
  mean percent change from Hargreaves baseline: −39.8 ± 4.5%
[1]; Table 24, injected Day 21, Day 39
  mean percent change from Hargreaves baseline: −34.6 ± 10.0%
[1]; Table 24, injected Day 21, Day 42
  mean percent change from Hargreaves baseline: −33.9 ± 9.9%
[1]; Table 25, 50 mg/kg s.c. at day 7, day 5 after surgery
  mean percent change from Hargreaves baseline: −51.2 ± 5.2%
[1]; Table 25, 50 mg/kg s.c. at day 7, day 7
  mean percent change from Hargreaves baseline: −47.6 ± 3.9%
[1]; Table 25, 50 mg/kg s.c. at day 7, day 9
  mean percent change from Hargreaves baseline: −36.7 ± 14.6%
[1]; Table 25, 50 mg/kg s.c. at day 7, day 12
  mean percent change from Hargreaves baseline: −47.2 ± 5.5%
[1]; Table 25, 50 mg/kg s.c. at day 7, day 15
  mean percent change from Hargreaves baseline: −46.7 ± 8.5%
[1]; Table 25, 50 mg/kg s.c. at day 7, day 19
  mean percent change from Hargreaves baseline: −28.6 ± 7.5%
[1]; Table 25, 50 mg/kg s.c. at day 7, day 22
  mean percent change from Hargreaves baseline: −34.9 ± 7.9%
[1]; Table 25, 50 mg/kg s.c. at day 7 post-surgery, Baseline
  mean percent change from Hargreaves baseline: 0.0 ± 0.0%
[1]; Table 26, 50 mg/kg i.p. at day 7, day 5 after surgery
  mean percent change from Hargreaves baseline: −55.5 ± 3.8%
[1]; Table 26, 50 mg/kg i.p. at day 7, day 7
  mean percent change from Hargreaves baseline: −61.6 ± 1.8%
[1]; Table 26, 50 mg/kg i.p. at day 7, day 8
  mean percent change from Hargreaves baseline: −59.3 ± 4.0%
[1]; Table 26, 50 mg/kg i.p. at day 7, day 9
  mean percent change from Hargreaves baseline: −51.0 ± 4.2%
[1]; Table 26, 50 mg/kg i.p. at day 7, day 12
  mean percent change from Hargreaves baseline: −46.5 ± 6.3%
[1]; Table 26, 50 mg/kg i.p. at day 7, day 15
  mean percent change from Hargreaves baseline: −43.3 ± 6.6%
[1]; Table 26, 50 mg/kg i.p. at day 7 post-surgery, Baseline
  mean percent change from Hargreaves baseline: 0.0 ± 0.0%
[2]; 25 mg/kg i.p. on day 1 post-surgery, Baseline
  Paw Withdrawal Threshold: 1.314 ± 0.137 g
[2]; 25 mg/kg i.p., 5 hr after treatment
  Paw Withdrawal Threshold: 0.011 ± 0.002 g
[2]; 25 mg/kg i.p., 22 hr after treatment
  Paw Withdrawal Threshold: 0.029 ± 0.004 g
[2]; 25 mg/kg i.p., 45 hr after treatment
  Paw Withdrawal Threshold: 0.190 ± 0.135 g
[2]; 25 mg/kg i.p., 70 hr after treatment
  Paw Withdrawal Threshold: 0.194 ± 0.034 g
[2]; 25 mg/kg i.p., Day 1 (post-surgery, before injection)
  Paw Withdrawal Threshold: 0.011 ± 0.002 g
[3]
  % binding to TrkA-hFc surface: 100%

— patent US8613927B2, “High affinity human antibodies to human nerve growth factor” (Regeneron Pharmaceuticals, Inc., priority 2007, dated 2013)
